Data published in PMC6548402, “Increasing molar activity by HPLC purification improves ^68Ga-DOTA-NAPamide tumor accumulation in a B16/F1 melanoma xenograft model” (PLoS ONE, 2019).
Read-outs that look alike come from different tables or passages of the source.

How the values were obtained:
[1] = biological target: T1, murine MC1R expressed in the B16/F1 cells (Mus musculus, UniProt Q01727); test: Competitive binding (ligand displacement) with 125I-NDP-MSH on whole B16/F1 cells; details: displacement of 125I-NDP-MSH, n = 3
T1 construct: endogenous in cells; host or cells: B16/F1 mouse melanoma cells (live, whole cells)
T1 sequence (Q01727 whole entry): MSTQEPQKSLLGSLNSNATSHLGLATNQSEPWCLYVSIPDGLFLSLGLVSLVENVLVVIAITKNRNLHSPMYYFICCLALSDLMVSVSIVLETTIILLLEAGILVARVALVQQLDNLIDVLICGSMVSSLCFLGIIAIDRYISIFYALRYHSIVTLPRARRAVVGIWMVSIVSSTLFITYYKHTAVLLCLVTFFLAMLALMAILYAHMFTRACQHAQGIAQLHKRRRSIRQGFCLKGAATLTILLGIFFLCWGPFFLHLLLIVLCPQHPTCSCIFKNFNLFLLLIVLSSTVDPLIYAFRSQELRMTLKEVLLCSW
Experimental: [Nle^4,d-Phe^7]-melanocyte-stimulating hormone (NDP-MSH) was iodinated with Na^125I by the chloramine-T method and it was purified from unlabeled peptide by HPLC as described before. Saturation and competitive binding studies were performed with live cells. 40.000 B16/F1 cells were seeded per well into a 96-well flat bottom cell culture plate. For competitive binding, medium was removed and 50 μL of binding buffer (50 mM 4-(2-hydroxyethyl)-1-piperazineethanesulfonic acid (HEPES) pH 7.4, 5 mM MgCl2, 1 mM CaCl2, 0.5% BSA, protease inhibitor cocktail cOmplete [Roche Applied Science, Penzberg, Germany]) with increasing concentrations of non-radioactive peptide was added to the cells. Additionally, 50 μL binding buffer with 100,000 counts per minute (cpm) of ^125I-NDP-MSH was added. After 30 minutes of incubation at 37°C, cells were washed 4 times with cold washing buffer (50 mM Tris-HCl pH 7.4, 125 mM NaCl, 0.05% BSA). 100 μL 1 N NaOH was added to lyse cells. Lysates were transferred into vials and measured using a gamma counter (Wallac 1470 Wizard, PerkinElmer, Waltham, MA, USA). The saturation assay was performed by adding 100 μL of binding buffer with increasing amounts of ^125I-NDP-MSH to the cells in the presence or absence of 1 μM of unlabeled NDP-MSH.

tumor = details: 4 h p.i., 111In and 67Ga labels; cited from earlier work
[2] = tested on: MC1R-expressing B16/F1 tumor xenografts; test: In vivo biodistribution in B16/F1 xenograft-bearing nude mice; design: species or system mouse
Experimental: (§1) B16/F1 cells (3x10^6) in a volume of 150 μL 0.9% NaCl were inoculated subcutaneously on the right shoulder of NMRI-Foxn1^nu /Foxn1^nu mice (Janvier Labs, Saint-Berthevin, France). After 1–2 weeks of growth, tumor bearing mice were injected with approximately 5 MBq of ^68Ga-DOTA-NAPamide in a volume of 100 μL 0.9% NaCl into a lateral tail vein via a catheter. Mice were sacrificed and dissected 1 h after injection. The B16F1 tumor, blood, stomach, pancreas, small intestine, colon, liver, spleen, kidney, heart, lung, muscle and femur samples were weighed and uptake of radioactivity was measured by a gamma counter (Wallac 1470 Wizard, Perkin Elmer, Waltham, MA, USA). To determine the effect of unlabeled ligand on tumor uptake, either 50 pmol or 500 pmol non-labeled DOTA-NAPamide were co-injected.

[3] = as above; design: species or system mouse; details: NMRI-Foxn1nu/Foxn1nu, mouse, iv, 5 MBq, total radioactivity; for tissue uptake at 1 h: 1 h after i.v. injection; for tissue to tissue ratio at 1 h: Fig 3
Experimental: as §1

[4] = In vivo PET/MRI imaging of mice bearing B16/F1 tumors (SUV by VOI); design: species or system mouse; details: NMRI-Foxn1nu/Foxn1nu, mouse, B16/F1 tumor, iv, total radioactivity; for SUV: dynamic PET; for SUV at 1 h: 1 h post injection, n = 1
Experimental: (§2) B16/F1 cells (3x10^6) in a volume of 150 μL 0.9% NaCl were inoculated subcutaneously on the right shoulder of NMRI-Foxn1^nu /Foxn1^nu mice (Janvier Labs, Saint-Berthevin, France). After 1–2 weeks of growth, tumor bearing mice were injected with approximately 15 MBq of ^68Ga-DOTA-NAPamide in a volume of approximately 150 μL 0.9% NaCl into a lateral tail vein via a catheter. Positron emission tomography (PET) / magnetic resonance imaging (MRI) (1 Tesla nanoScan PET/MRI Mediso, Budapest, Hungary) was performed at Berlin Experimental Radionuclide Imaging Center (BERIC), Charité –Universitätsmedizin Berlin. Anatomic MRI scans were acquired using a T2-weighted 2D fast spin echo sequence (T2 FSE 2D) with the following parameters: coronal sequentially, matrix 256x256x20 with dimensions 0.36x0.36x1.5mm^3, TR: 8695 ms, TE: 103 ms, and a flip angle of 180°. PET scans were performed for 90 min starting directly before intravenous injection of tracer. PET images were reconstructed from the raw data with the following image sequence: 6 x 10 s, 6 x 30 s, 5 x 60 s and 8 X 600 s. The tracer standardized uptake value (SUV) in the tumor tissue was determined by manual contouring of a volume of interest (VOI) of the PET images using PMOD 3.610 (PMOD Technologies, Zürich, Switzerland).

B16/F1 tumors = test: as above; design: species or system mouse; details: dynamic PET, all tested conditions, after injection
Experimental: as §2

[5] = B16/F1 cells, Fig 1B (impact of gallium chelation)

## Ga-labeled DOTA-NAPamide: DOTA-NAPamide complexed with non-radioactive Ga (XDHFRWGK; Linear alpha-MSH analogue Ac-Nle-Asp-His-D-Phe-Arg-Trp-Gly-Lys(DOTA)-NH2: N-terminal acetyl; X1 = norleucine; D-Phe4; Lys8 side chain conjugated to DOTA chelating non-radioactive Ga; C-terminal amide)
[1]; [5]
  Ki: 0.43 nM

## CCCC[C@H](NC(C)=O)C(=O)N[C@@H](CC(=O)O)C(=O)N[C@@H](Cc1c[nH]cn1)C(=O)N[C@H](Cc1ccccc1)C(=O)N[C@@H](CCCNC(=N)N)C(=O)N[C@@H](Cc1c[nH]c2ccccc12)C(=O)NCC(=O)N[C@@H](CCCCNC(=O)CN1CCN(CC(=O)O)CCN(CC(=O)O)CCN(CC(=O)O)CC1)C(N)=O [DOTA-NAPamide, Acetyl-Nle-Asp-His-D-Phe-Arg-Trp-Gly-Lys(DOTA)-NH2]
tumor
  tumor uptake: 7.56% to 9.43%
[1]; [5]
  Ki: 0.4 nM
[1]; whole B16/F1 cells, Fig 1A
  Ki: 0.37 nM

## CCCC[C@H](NC(C)=O)C(=O)N[C@@H](CC(=O)O)C(=O)N[C@@H](Cc1c[nH]cn1)C(=O)N[C@H](Cc1ccccc1)C(=O)N[C@@H](CCCNC(=N)N)C(=O)N[C@@H](Cc1c[nH]c2ccccc12)C(=O)NCC(=O)N[C@@H](CCCCNC(=O)CN1CCN(CC(=O)O)CCN(CC(=O)O)CCN(CC(=O)O)CC1)C(N)=O [68Ga-DOTA-NAPamide, metal not drawn]
[2]; 500 pmol coinjected unlabeled peptide, 1 h
  decrease in tumor uptake vs purified tracer alone: approximately 6 fold
[2]; 1 h post injection
  increase in tumor uptake, purified vs non-purified: more than 8 fold
[2]; HPLC-purified tracer, 1 h after i.v. injection, ~5 MBq, ± 95% CI, n = 7
  tumor uptake: 7.0% ± 1.7%
[2]; non-purified tracer (standard procedure), 1 h after i.v. injection, ~5 MBq, ± 95% CI, n = 7
  tumor uptake: 0.78% ± 0.55%
[2]; purified tracer + coinjection of 50 pmol (1,000-fold) cold DOTA-NAPamide, 1 h, Fig 4, n = 3, ± 95% CI
  tumor uptake: 3.8% ± 3.6%
[2]; purified tracer + coinjection of 500 pmol (10,000-fold) cold DOTA-NAPamide, 1 h, Fig 4, n = 3, ± 95% CI
  tumor uptake: 1.1% ± 0.5%
[2]; purified tracer alone, 5 MBq (~50 fmol), 1 h, Fig 4, n = 3, ± 95% CI
  tumor uptake: 6.7% ± 1.9%
[2]; purified tracer, 1 h after i.v. injection, ± 95% CI
  kidney uptake: 3.0% ± 0.6%
[2]; standard procedure (non-purified), 1 h after i.v. injection, ± 95% CI
  kidney uptake: 4.6% ± 2.7%
[3]; B16/F1 tumor, HPLC-purified tracer, ~5 MBq, ± 95% CI, n = 7, read-out: tumor uptake
  tissue uptake at 1 h: 7 %ID/g
[3]; B16/F1 tumor, non-purified tracer (standard procedure), ~5 MBq, ± 95% CI, n = 7, read-out: tumor uptake
  tissue uptake at 1 h: 0.78 %ID/g
[3]; all other tissues (except tumor and kidneys), mostly below, read-out: uptake in all other tissues (except tumor and kidneys)
  tissue uptake at 1 h: < 0.5 %ID/g
[3]; tumor / all other organs investigated, HPLC-purified tracer, read-out: tumor-to-tissue ratios for all other organs investigated
  tissue to tissue ratio at 1 h: > 15
[3]; tumor / kidney, HPLC-purified tracer, read-out: tumor-to-kidney ratio
  tissue to tissue ratio at 1 h: 2.33
[4]; 15 MBq, the other tumors (other three formulations), read-out: initial amount of radioactivity in the tumor (mean SUV)
  SUV: 0.43 SUV
[4]; 15 MBq, purified tracer
  SUV at 1 h: 0.42 SUV
[4]; 15 MBq, unpurified tracer (standard procedure)
  SUV at 1 h: 0.119 SUV
[4]; animal with 1,000-fold excess of cold peptide mass, read-out: initial amount of radioactivity in the tumor (SUV)
  SUV: 0.63 SUV
[4]; purified + 1,000-fold excess of cold peptide
  SUV at 1 h: 0.367 SUV
[4]; purified + 10,000-fold excess of unlabeled peptide
  SUV at 1 h: 0.152 SUV
B16/F1 tumors
  time to maximum tracer level in the tumors: 5 to 10 min
